Reference: US4127671A, “P-acetamidophenyl diethylaminoacetate” (Societe Anonyme dite: HEXACHIME, priority 1977, dated 1978)

Legend:
solubility in water = type: physicochemical; details: novel derivative
[1] = pharmacological properties compared with paracetamol; type: in vivo
Experimental: (§1) The analgesic action of the product was determined by the following method: batches of 6 male mice (SPF, OFI strain), weighing 19 to 20 g, received the test product by intravenous means. 0.3 c.c. per mouse of a 0.02% solution of phenyl benzoquinone was simultaneously injected by intraperitoneal means and the number of reactions of pain (abdominal twists) was counted from the 5 to the 10 minute after the latter treatment.
The antihyperthermisant action of the product according to the invention was determined by the following method: batches of 5 male Fauve de Bourgogne rabbits weighing 2 to 3 kg receive by intraveneous means 1 c.c./kg of an endotoxin solution of Salmonella abortus equivalent to 1 γ/kg in the physiological serum.
Two and a half hours later, the test product was administered in a physiological solution by intraveneous means.
The rectal temperature was recorded at regular intervals by an Ellab thermocouple. The probe was pressed 80 mm in.

[2] = stability of aqueous solutions; type: physicochemical; details: with the passage of time
[3] = tested on: reactions of pain (abdominal twists), phenyl benzoquinone; assay: analgesic action: inhibition of phenyl benzoquinone-induced reactions of pain (abdominal twists); type: in vivo, male mice (SPF, OFI strain); details: mice, pain reactions counted from 5 to 10 minute
Experimental: as §1
The following Table I gives the inhibitory percentage of these reactions.

[4] = release of p-acetamidophenol in the organism

solubility in water (solubility in water): very soluble in water
stability of aqueous solutions [2]: stable with the passage of time
release of p-acetamidophenol [4]: rapidly releases p-acetamidophenol
SMILES: CCN(CC)CC(=O)Oc1ccc(NC(C)=O)cc1 [p-acetamidophenyl diethylaminoacetate]
pharmacological properties [1]: comparable to those of paracetamol
% of inhibition ([3]; 8 mg/kg I.V.): 26%
% of inhibition ([3]; 16 mg/kg I.V.): 41%
% of inhibition ([3]; 32 mg/kg I.V.): 68%
% of inhibition ([3]; 64 mg/kg I.V.): 94%
